This note sets out measurements from ChEMBL document CHEMBL1201862, “PubChem BioAssay data set” (2004).

Test systems include PC-3; NCI-H23; UO-31; K562; BT-549; NCI-H226; HOP-62; ACHN; U-251; RXF 393; HCT-116; NCI/ADR-RES; SK-MEL-5; A549; NCI-H522; CCRF-CEM; HCT-15; OVCAR-3; OVCAR-4; DU-145.
Common to all, as to experiment: NCI-60 cell line screen, 48 h

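Cells were grown in 96-well plates and exposed to each compound for 48 hours at five concentrations; endpoints were interpolated linearly between bracketing concentrations, or set to the highest concentration if not reached. GI50 marks 50% less growth.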 The source made the active and inactive calls. No stated cut-off is given here; in the data, active = GI50 up to about 1.1 µM and inactive = higher.

On to `Oc1cccc(Nc2cc(O)nc(O)n2)c1`, for which the GI50 with PC-3, in the experiment with NCI-H23, in the experiment with UO-31, with K562, in the experiment on BT-549 and in the experiment with NCI-H226 was > 100 µM (inactive) each time. The GI50 with HOP-62, in the experiment with ACHN, in the experiment with U-251, with RXF 393, in the experiment on HCT-116 and with NCI/ADR-RES was > 100 µM (inactive) each time. Also, the GI50 is > 100 µM (inactive) in the experiment on SK-MEL-5; > 100 µM (inactive) in the experiment with A549; > 100 µM (inactive) in the experiment on NCI-H522; > 100 µM (inactive) in the experiment with CCRF-CEM; greater than 100 µM in the experiment with HCT-15; > 100 µM (inactive) with OVCAR-3. The GI50 in the experiment on OVCAR-4 is > 100 µM (inactive).

For the compound `N#Cc1nc(Cc2ccccc2)oc1N`, the GI50 was > 100 µM (inactive) in the experiment with PC-3; > 100 µM (inactive) in the experiment with NCI-H23; > 100 µM (inactive) with UO-31; 42.1 µM (inactive) in the experiment on K562; > 100 µM (inactive) with BT-549; > 100 µM (inactive) in the experiment with NCI-H226. Besides, the GI50 with HOP-62, in the experiment with ACHN, with U-251, in the experiment on DU-145, in the experiment with RXF 393 and in the experiment with HCT-116 was > 100 µM (inactive) throughout. Further, the GI50 in the experiment with SK-MEL-5 is > 100 µM (inactive); in the experiment on A549, > 100 µM (inactive); in the experiment with CCRF-CEM, 44.3 µM (inactive); in the experiment with HCT-15, greater than 100 µM; in the experiment on OVCAR-3 it was > 100 µM (inactive); with OVCAR-4 it was > 100 µM (inactive).

With `COc1cc(/C=C2\N=C(c3ccccc3)N(c3nc4cc(C)c(C)cc4s3)C2=O)cc(OC)c1OC`, the GI50 was 23.9 µM (inactive) in the experiment with PC-3; 24.7 µM (inactive) in the experiment on UO-31; 35.4 µM (inactive) with K562; 26.8 µM (inactive) in the experiment with BT-549; 19.9 µM (inactive) with HOP-62; 27 µM (inactive) in the experiment on ACHN. Further, the GI50 in the experiment on U-251 was 21.8 µM (inactive); in the experiment with DU-145, 45.4 µM (inactive); in the experiment on RXF 393 it was 19.3 µM (inactive); in the experiment with HCT-116, 20.2 µM (inactive); in the experiment on NCI/ADR-RES, 28.1 µM (inactive); in the experiment on SK-MEL-5 it was 21.2 µM (inactive). Besides, the GI50 in the experiment on A549 is 30.1 µM (inactive); in the experiment with CCRF-CEM, 7.41 µM (inactive); with HCT-15, 30.3 µM; in the experiment with OVCAR-3 it was 20 µM (inactive); in the experiment with OVCAR-4 it was 21.3 µM (inactive).

`CCOC(=O)C(=O)/C(=C\NC(=S)Nc1ccccc1Cl)C(=O)OCC`: the GI50 in the experiment with PC-3, in the experiment on NCI-H23, with UO-31, in the experiment on K562, with NCI-H226 and in the experiment with HOP-62 was > 100 µM (inactive) throughout. Moreover, the GI50 with ACHN, in the experiment with U-251, in the experiment on DU-145, with RXF 393, in the experiment on HCT-116 and with NCI/ADR-RES was > 100 µM (inactive) in each case. Further, the GI50 is > 100 µM (inactive) in the experiment on SK-MEL-5; > 100 µM (inactive) with A549; > 100 µM (inactive) in the experiment with NCI-H522; > 100 µM (inactive) in the experiment on CCRF-CEM; greater than 100 µM in the experiment on HCT-15; > 100 µM (inactive) in the experiment on OVCAR-3. Besides, the GI50 with OVCAR-4 is > 100 µM (inactive).

On to `CCN(CC)c1ccc2cc(C(=O)Nc3ccc(C)cc3)c(=N)oc2c1`, for which the GI50 in the experiment on PC-3, in the experiment with NCI-H23, in the experiment on K562, in the experiment on BT-549, in the experiment on NCI-H226 and in the experiment with HOP-62 was > 100 µM (inactive) each time. Moreover, the GI50 in the experiment with ACHN, in the experiment on U-251, in the experiment with DU-145, with RXF 393, with HCT-116 and with NCI/ADR-RES was > 100 µM (inactive) in each case. The GI50 is > 100 µM (inactive) in the experiment with SK-MEL-5; > 100 µM (inactive) with A549; > 100 µM (inactive) in the experiment on CCRF-CEM; greater than 100 µM in the experiment on HCT-15; > 100 µM (inactive) in the experiment on OVCAR-3; > 100 µM (inactive) with OVCAR-4.

With `O=c1[nH][nH]c(=O)n1/N=C/c1ccccc1`, the GI50 in the experiment with PC-3, in the experiment with NCI-H23, in the experiment with UO-31, with K562, in the experiment on BT-549 and in the experiment on NCI-H226 was > 100 µM (inactive) throughout. Also, the GI50 with HOP-62, in the experiment with ACHN, in the experiment on U-251, with DU-145, in the experiment on HCT-116 and in the experiment on NCI/ADR-RES was > 100 µM (inactive) each time. Besides, the GI50 is > 100 µM (inactive) with SK-MEL-5; > 100 µM (inactive) with A549; > 100 µM (inactive) in the experiment with CCRF-CEM; greater than 100 µM in the experiment on HCT-15; > 100 µM (inactive) in the experiment on OVCAR-3.

In the case of `CCCCCCCCCCCC[C@@H](O)[C@H]1CC[C@H]([C@H]2CC[C@H]([C@H](O)CC[C@H](O)CCCCCCCC3=C[C@H](C)OC3=O)O2)O1`, the GI50 in the experiment on PC-3 was 1.55 µM (inactive); with NCI-H23 it was 0.0201 µM (active); in the experiment with UO-31, 0.562 µM (active); in the experiment on K562 it was 1.05 µM (active); with BT-549, 0.00352 µM (active); in the experiment on NCI-H226, 1.67 µM (inactive). Besides, the GI50 in the experiment with HOP-62 is 1.57 µM (inactive); in the experiment on ACHN, 0.0933 µM (active); in the experiment on U-251, 2.13 µM (inactive); with DU-145, 3.38 µM (inactive); in the experiment on RXF 393 it was 2.12 µM (inactive); in the experiment with HCT-116, 1.23 µM (inactive). Besides, the GI50 in the experiment with NCI/ADR-RES is 1.29 µM (inactive); in the experiment with SK-MEL-5, 1.38 µM (inactive); in the experiment with A549 it was 1.35 µM (inactive); in the experiment on CCRF-CEM it was 1.09 µM (active); in the experiment with HCT-15, 2.03 µM; with OVCAR-3, 1.58 µM (inactive).

For the compound `CC1=C(CO)C2=C(C)C3(CC3)[C@@](C)(O)C(=O)C2=C1` [IROFULVEN], the GI50 in the experiment with PC-3 is 0.267 µM (active); in the experiment with NCI-H23 it was 0.0877 µM (active); in the experiment on UO-31, 0.19 µM (active); with K562, 3.37 µM (inactive); in the experiment with NCI-H226 it was 0.191 µM (active); in the experiment with HOP-62, 0.161 µM (active). The GI50 in the experiment on ACHN was 0.262 µM (active); with U-251, 0.286 µM (active); in the experiment on DU-145 it was 0.0929 µM (active); in the experiment on RXF 393, 0.0507 µM (active); in the experiment with HCT-116 it was 0.21 µM (active); in the experiment on NCI/ADR-RES it was 0.241 µM (active). The GI50 in the experiment on SK-MEL-5 is 0.161 µM (active); in the experiment with A549, 0.113 µM (active); in the experiment on NCI-H522, 0.146 µM (active); with CCRF-CEM, 1.82 µM (inactive); with HCT-15, 0.29 µM; with OVCAR-3 it was 0.26 µM (active). For the same compound, the GI50 in the experiment with OVCAR-4 is 0.237 µM (active).
